According to patent publication US11098062B2, “Monocyclic and bicyclic ring system substituted carbanucleoside analogues for use as PRMT5 inhibitors” (Janssen Pharmaceutica NV, priority 2016, dated 2021):

Legend:
[1] = target: T1, PRMT5-MEP50 enzyme (Homo sapiens, UniProt O14744); test: In vitro assay 1b: PRMT5-MEP50 high throughput mass spectrometer assay (SAH formation), 1.25 nM enzyme; format: biochemical
T1 construct: One virus expresses full length human PRMT5 with Flag-tag at N-terminus; Flag (N); purchased Charles River (Argenta); host or cells: insect cells (Sf9), baculovirus co-infection
Excerpt: (§1) Experimental Procedures In Vitro Assay (Assay 1a and 1b)
(§2) PRMT5-MEP50 enzyme was purchased from Charles River (Argenta). The enzyme complex was produced in insect cells (Sf9) infected simultaneously with two baculoviruses. One virus expresses full length human PRMT5 with Flag-tag at N-terminus, the second virus expresses full length MEP50 with His6-TEV cleavage at N-terminus. The protein was affinity purified using anti-Flag (M2) beads eluted with 3×FLAG peptide, followed by His-Select eluted with 0.5M imidazole. Eluted protein was then dialysed against tris-buffered saline (TBS) (pH 8.0) containing 20% glycerol and 3 mM dithiothreitol (DTT).
(§3) Full-length untagged human recombinant histone H2A (residues 1-130, Genbank Accession #NM_021052, MW=14.1 kDa) expressed in E. coli was purchased from Reaction Biology Corporation, Cat #HMT-11-146. Reagents used for making reaction buffer or stopping reaction were purchased including Tris base (Sigma Cat #T-1503), NaCl (Sigma Cat #RGF-3270), MgCl2 (Sigma Cat #M0250), DTT (Invitrogen Cat #15508-013) and Formic Acid (Riedel deHaen, Cat #33015)
(§4) PRMT5 catalyzes the sequential methylations of the terminal nitrogen atoms on the guanidine groups of arginine residues within proteins using co-substrate S-adenosyl-L-methionine (AdoMet, SAM), forming mono-methyl (MMA), syrmmetric-dimethyl arginine (sDMA) and S-adenosyl-L-homocysteine (AdoHcy, SAH). The enzyme activity was determined by following the product SAH formation using high throughput mass spectrometry (Agilent Rapidfire 300 System coupled to a Sciex 4000 series QTrap® triple-quad MS/MS). The reaction buffer was 20 mM Tris-HCl, pH 8.5, 50 mM NaCl, 5 mM MgCl2 and 1 mM DTT. The reaction activity was stopped using 1% formic acid (final concentration).
(§5) The IC50 Studies were performed using eleven point dosing series made for each compound by serially diluted 1:2 in dimethyl sulfoxide (DMSO), with point 12 being a DMSO control. Compounds were first spotted to plates, and followed by addition of 2 μM SAM and 0.6 μM H2A (histone H2A) solution mixture. The same volume of enzyme solution was added to initiate the enzymatic reactions. The final concentrations of the reaction are at 1 μM SAM, 0.3 μM H2A and 10 nM enzyme (assay 1a) or or 1.25 nM enzyme (assay 1b). The reaction was incubated at 30° C. for 60 minutes (min) when 10 nM enzyme was used and for 120 min when 1.25 nM enzyme was used. Subsequently, the reaction was quenched by addition of formic acid to a final concentration of 1%. The inhibitions of SAH formation in the presence of compounds were calculated as a percentage of the control relative to the uninhibited reaction as a function of inhibitor concentration. The data were fit as follows: Y=Bottom+(Top−Bottom)/(1+10^((log IC50−X)*h))
(§6) where IC50 is the inhibitor concentration (same unit as X) at 50% inhibition and h is the Hill slope. Y is percent of inhibition, X is log of compound concentration. Bottom and Top are the plateaus in same units as Y.

[2] = system: nuclear symmetric Arginine dimethylation in A549 cells; test: PD assay (assay 2): inhibition of nuclear symmetric Arginine dimethylation (SYM10 immunostaining) in A549 cells; format: cell-based; conditions: Homo sapiens, 48 h incubation, SYM10 antibody, averaged values, read-out: pIC50 Assay 2 (converted)
Method: Experimental Procedure PD Assay (Assay 2)
A549 cells (ATCC, Cat #CCL-185) were cultured in Dulbecco's Modified Eagle's Medium (DMEM) (Sigma, Cat #D5796), supplemented with 10% Fetal Calf Serum (FCS) (HyClone™, Cat #SV30160.03), 100 mM Sodium Pyruvate (Sigma, Cat #S8636), 200 mM L-Glutamine (Sigma, Cat #G7513) and 50 mg/mL Gentamycing (Gibco, Cat #15750-037).
Reagents used for buffers were purchased: Dulbecco's phosphate buffered saline (DPBS) without Ca/Mg (Sigma, Cat #D8537), phosphate buffered saline (PBS) 10× (Roche, Cat #11 666 789 001), Formalin solution 10% (Sigma, HT50-1-128-4L), Methanol 100% (Sigma, Cat #32213-2.5L), Triton X-100 (Acros, Cat #215680010), Bovine Serum Albumin (BSA) (Sigma, Cat #A2153), Alexa fluor 488 goat anti-rabbit antibody (Life Technologies, Cat #A11034), HCS CellMask Deep Red Stain (Life Technologies, Cat #H32721), Hoechst Stain (Life Technologies, Cat #33258), Anti-dimethyl-Arginine, sym (SYM10) antibody (Millipore, 07-412).
Cells were plated at 400 cells/40 μL/well in 384 well black μplates clear bottom (Perkin Elmer) and overnight incubated at 37° C., 5% CO2. The IC50 Studies were performed using nine point dosing series ranging from 10 μM to […] for each compound. 80 nL of the respective dilution of the compounds was added using the Labcyte POD 810 (Labcyte) reaching a final DMSO concentration of 0.2% in cell culture. After an incubation period of 48 h at 37° C. and 5% CO2, cells were fixed in 10% formalin solution for 15 min at room temperature and 20 min in ice-cold methanol, after which they were washed 3× in DPBS. Subsequently, the cells were blocked for 1 h in blocking buffer (PBS+1% BSA and 0.5% Triton X-100) and incubated overnight at 4° C. with the SYM10 antibody diluted 1/2000 in blocking buffer. The cells were washed 3× with washing buffer (PBS+0.1% Triton X-100) and incubated with the Alexa fluor 488 goat anti-rabbit antibody diluted 1/200 in blocking buffer for 1 h at room temperature. Subsequently, they were washed 3× with washing buffer and incubated for 30 min at room temperature with PBS containing a 1/5000 dilution of Hoechst Stain and a 1/5000 dilution of the HCS CellMask Deep Red Stain. After a final wash with PBS, the plates were imaged using the 10×W lens of the Opera® system (Perkin Elmer Life Sciences) using following settings (values in nm):
Low control: minimum level of symmetrically dimethylated Arginines (cells treated with reference compound at 10 μM).
High control: maximum level of symmetrically dimethylated Arginines (DMSO treated cells).
IC50 and pIC50 (−log IC50) values were calculated using the appropriate software.
The pIC50 values in the Table below are averaged values (Co. No. means compound number; n.d. means not determined).

[3] = target: T1, PRMT5-MEP50 enzyme; test: In vitro assay 1a: PRMT5-MEP50 high throughput mass spectrometer assay (SAH formation), 10 nM enzyme; format: biochemical; conditions: 1 μM SAM, 0.3 μM H2A, 30° C., 60 min, averaged values, read-out: pIC50 Assay 1a (converted)
Excerpt: as §1, §2, §3, §4, §5, §6

[4] = 1.25 nM enzyme, 1 μM SAM, 0.3 μM H2A, 30° C., 120 min, averaged values, read-out: pIC50 Assay 1b (converted)

T1 sequence (O14744 whole entry): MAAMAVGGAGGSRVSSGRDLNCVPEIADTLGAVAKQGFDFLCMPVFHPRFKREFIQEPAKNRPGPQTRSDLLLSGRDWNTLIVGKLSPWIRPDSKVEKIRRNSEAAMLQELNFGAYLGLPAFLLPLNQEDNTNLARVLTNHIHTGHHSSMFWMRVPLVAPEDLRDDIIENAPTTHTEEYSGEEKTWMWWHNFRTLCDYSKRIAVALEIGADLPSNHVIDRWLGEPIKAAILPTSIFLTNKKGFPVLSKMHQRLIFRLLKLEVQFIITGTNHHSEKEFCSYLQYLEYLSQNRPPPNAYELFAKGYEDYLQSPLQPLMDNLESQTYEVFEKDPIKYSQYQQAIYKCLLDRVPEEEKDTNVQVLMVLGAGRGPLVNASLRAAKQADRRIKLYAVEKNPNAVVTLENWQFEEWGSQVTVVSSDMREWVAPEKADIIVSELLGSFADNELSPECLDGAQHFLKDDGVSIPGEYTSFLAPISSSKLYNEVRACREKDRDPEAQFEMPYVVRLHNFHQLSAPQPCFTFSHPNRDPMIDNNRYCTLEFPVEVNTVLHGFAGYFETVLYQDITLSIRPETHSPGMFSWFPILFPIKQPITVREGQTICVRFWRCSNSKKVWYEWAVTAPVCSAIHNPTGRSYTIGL
T1 sequence (Q9BQA1 whole entry partner): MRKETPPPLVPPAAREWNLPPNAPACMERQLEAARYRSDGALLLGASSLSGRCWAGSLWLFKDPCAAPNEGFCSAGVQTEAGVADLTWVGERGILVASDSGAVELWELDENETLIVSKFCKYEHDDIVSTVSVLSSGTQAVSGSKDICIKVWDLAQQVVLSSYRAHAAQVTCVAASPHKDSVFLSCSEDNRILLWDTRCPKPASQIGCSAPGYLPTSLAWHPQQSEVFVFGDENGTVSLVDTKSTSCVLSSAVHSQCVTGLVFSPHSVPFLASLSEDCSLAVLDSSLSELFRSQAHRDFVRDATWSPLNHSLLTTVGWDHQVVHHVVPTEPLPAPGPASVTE

| SMILES | IC50 [1, 4] [nM] | IC50 [2] [nM] | IC50 [3] [nM] | IC50 [1] [nM] |
| --- | --- | --- | --- | --- |
| Cc1cnc2cc(CC[C@H]3C[C@@H](n4ccc5c(N)ncnc54)[C@H](O)[C@@H]3O)c(Cl)cn12 [Compound 2] | 0.158 | 6.31 |  |  |
| Nc1ncnc2c1ccn2[C@@H]1C[C@H](CCc2ccn3c(C4CC4)cnc3c2)[C@@H](O)[C@H]1O [Compound 8] | 2.51 | 25.1 |  |  |
| Nc1ncnc2c1ccn2[C@@H]1C[C@H](CCc2cc3ncccc3s2)[C@@H](O)[C@H]1O [Compound 18] |  | 126 | 39.8 |  |
| Nc1nc2cc(CC[C@H]3C[C@@H](n4ccc5c(N)ncnc54)[C@H](O)[C@@H]3O)ccc2s1 [Compound 6] |  | 15.8 | 2 |  |
| Nc1ncnc2c1ccn2[C@@H]1C[C@H](CCc2ccn3ccnc3c2)[C@@H](O)[C@H]1O [Compound 3] |  | 20 | 2 |  |
| Nc1cccc(CC[C@H]2C[C@@H](n3ccc4c(N)ncnc43)[C@H](O)[C@@H]2O)n1 [Compound 28] | 158 | 631 |  |  |
| Nc1nc2cc(CC[C@H]3C[C@@H](n4ccc5c(Cl)ncnc54)[C@H](O)[C@@H]3O)ccc2s1 [Compound 5] |  | 3980 | 12.6 |  |
| CNc1ncnc2c1ccn2[C@@H]1C[C@H](CCc2ccn3c(C)cnc3c2)[C@@H](O)[C@H]1O [Compound 9] | 3.98 | 63.1 |  |  |
| Nc1cc(CC[C@H]2C[C@@H](n3ccc4c(N)ncnc43)[C@H](O)[C@@H]2O)ccn1 [Compound 29] | 398 | 2000 |  |  |
| Cn1cnc2cc(CC[C@H]3C[C@@H](n4ccc5c(N)ncnc54)[C@H](O)[C@@H]3O)ccc21 [Compound 4] |  | 31.6 | 12.6 |  |
| Cc1cnc2c(Cl)c(CC[C@H]3C[C@@H](n4ccc5c(N)ncnc54)[C@H](O)[C@@H]3O)ccn12 [Compound 21] | 3.98 | 15.8 |  |  |
| COc1ncnc2c1ccn2[C@@H]1C[C@H](CCc2ccn3c(C)cnc3c2)[C@@H](O)[C@H]1O [Compound 10] | 10 | 200 |  |  |
| Nc1ccc(/C=C/[C@H]2C[C@@H](n3ccc4c(N)ncnc43)[C@H](O)[C@@H]2O)cn1 [Compound 30] | 63.1 | 501 |  |  |
| Nc1ncnc2c1ccn2[C@@H]1C[C@H](COc2ccn3ccnc3c2)[C@@H](O)[C@H]1O [Compound 24] |  | 1580 | 31.6 |  |
| Nc1ncnc2c1ccn2[C@@H]1C[C@H](CCc2cc3ncccc3[nH]2)[C@@H](O)[C@H]1O [Compound 17] |  | 1000 | 39.8 |  |
| Nc1cc2cccc(CCC[C@H]3C[C@@H](n4ccc5c(N)ncnc54)[C@H](O)[C@@H]3O)c2cn1 [Compound 41] | 398 |  |  |  |
| Nc1ncnc2c1ccn2[C@@H]1C[C@H](CCc2ccn3cc(C(F)(F)F)nc3c2)[C@@H](O)[C@H]1O [Compound 23] | 39.8 |  |  |  |
| Nc1cccc(CCCC[C@H]2C[C@@H](n3ccc4c(N)ncnc43)[C@H](O)[C@@H]2O)n1 [Compound 55] | 0.398 |  |  |  |

| SMILES | IC50 [1, 4] [nM] | IC50 [2] [nM] | IC50 [3] [nM] | IC50 [1] [nM] |
| --- | --- | --- | --- | --- |
| Nc1ncnc2c1ccn2[C@@H]1C[C@H](CCCc2cccc3cccnc23)[C@@H](O)[C@H]1O [Compound 52] | > 2510 |  |  |  |
| CNc1nc2cc(CC[C@H]3C[C@@H](n4ccc5c(N)ncnc54)[C@H](O)[C@@H]3O)ccc2s1 [Compound 7] |  | 25.1 | 6.31 |  |
| Cc1cnc2cc(CC[C@H]3C[C@@H](n4cc(Br)c5c(N)ncnc54)[C@H](O)[C@@H]3O)ccn12 [Compound 15] | 1 | 6.31 |  |  |
| Nc1ncnc2c1ccn2[C@@H]1C[C@H](CCc2cc3ncccc3o2)[C@@H](O)[C@H]1O [Compound 19] |  | 5010 | 1260 |  |
| Nc1ccc(CC[C@H]2C[C@@H](n3ccc4c(N)ncnc43)[C@H](O)[C@@H]2O)cn1 [Compound 27] |  | 6.31 |  | 5.01 |
| Nc1ncnc2c1ccn2[C@@H]1C[C@H](CCCc2cccnc2)[C@@H](O)[C@H]1O [Compound 42] | 316 |  |  |  |
| Nc1ncnc2c1ccn2[C@@H]1C[C@H](CCCc2ccn3ccnc3c2)[C@@H](O)[C@H]1O [Compound 48] | 31.6 |  |  |  |
| Nc1ncnc2c1ccn2[C@@H]1C[C@H](CCCc2cnc3c(N)cccc3c2)[C@@H](O)[C@H]1O [Compound 44] | 1580 |  |  |  |
| Nc1ccc(CCC[C@H]2C[C@@H](n3ccc4c(N)ncnc43)[C@H](O)[C@@H]2O)cn1 [Compound 53] | 2 |  |  |  |
| Cc1nc2cc(CC[C@H]3C[C@@H](n4ccc5c(N)ncnc54)[C@H](O)[C@@H]3O)ccn2c1C [Compound 11] |  | 3.98 |  | < 0.2 |
| Cn1cncc1CC[C@H]1C[C@@H](n2ccc3c(N)ncnc32)[C@H](O)[C@@H]1O [Compound 38] | 794 |  |  |  |
| CC(=O)Nc1cn2ccc(CC[C@H]3C[C@@H](n4ccc5c(N)ncnc54)[C@H](O)[C@@H]3O)cc2n1 [Compound 31] | 63.1 |  |  |  |
| Cn1cnc2cc(OC[C@H]3C[C@@H](n4ccc5c(N)ncnc54)[C@H](O)[C@@H]3O)ccc21 [Compound 25] |  | 2000 | 126 |  |
| Nc1cc(CCC[C@H]2C[C@@H](n3ccc4c(N)ncnc43)[C@H](O)[C@@H]2O)ccn1 [Compound 45] | 501 |  |  |  |
| Nc1ncnc2c1ccn2[C@@H]1C[C@H](CCc2cnc3c(c2)OCCN3)[C@@H](O)[C@H]1O [Compound 72] | 12.6 |  |  |  |
| Nc1ncnc2c1ccn2[C@@H]1C[C@H](CCC2=CC3=NC(=O)CN3C=C2)[C@@H](O)[C@H]1O [Compound 71] | 100 |  |  |  |
| Cc1cnc2cc(CC[C@H]3C[C@@H](n4ccc5c(N)ncnc54)[C@H](O)[C@@H]3O)c(F)cn12 [Compound 12] | 0.316 | 2 |  |  |
